Where a name gives a salt, the structure may show the parent alone.
Each compound was assayed on MTT (mouse pheochromocytoma) (assay: IC50 of cell viability (ATP content)). Settings: (24 or 48 h).
Procedure, shortened: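 After overnight culture at 37°C, 5% CO2 in white 1536-well plates, MTT mouse pheochromocytoma cells were given 23 nl of library compound in DMSO by pintool across 8 concentrations, spanning final 0.5 nM to 46 µM. Following 24 or 48 hrs, CellTiter-Glo luminescence was read after 15 minutes and normalised against positive-control (100%) and DMSO (0%) wells. A four-parameter logistic model provided the IC50.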

Row | SMILES | IC50 of cell viability [µM]
1 | CNc1ccc(C(=O)CC(O)CCC(C)C2OC(=O)CC(O)CC(=O)CC(O)CC(O)CC(O)CC(O)CC3(O)CC(O)C(C(=O)OC)C(CC(O[C@@H]4OC(C)C(O)C(N)C4O)/C=C/C=C/C=C/C=C/C=C/C=C/C=C/C2C)O3)cc1 (stereo partly drawn) [MEPARTRICIN] | > 46
2 | CC1CC[C@@]2(NC1)OC1CC3C4CC[C@@H]5CC(O)CC[C@@]5(C)C4CC[C@]3(C)C1C2C.Cl (stereo partly drawn) [TOMATIDINE HYDROCHLORIDE] | > 46
3 | Cn1cnc([N+](=O)[O-])c1Sc1ncnc2nc[nH]c12 [Azathioprine] | > 46
4 | CN1C(=O)CC[S+](=O)([O-])C1c1ccc(Cl)cc1 (stereo not drawn) [Chlormezanone] | > 46
5 | C[C@]12CC[C@H]3[C@@H](CC[C@@]45O[C@@H]4C(=O)C(C#N)C[C@]35C)[C@@H]1CC[C@@H]2O (stereo partly drawn) [TRILOSTANE] | > 46
6 | O=C(O)CCC(=O)O [SUCCINIC ACID] | > 46
7 | N[S+](=O)([O-])c1cc2c(cc1Cl)N[C@@H](CC1CCCC1)N[S+]2(=O)[O-] [Cyclopenthiazide] | > 46
8 | CCCCCCCC/C=C\CCCCCCCCN [DECTAFLURUM] | > 46
9 | CC1[C@H]2Cc3ccc(O)cc3[C@]1(C)CCN2C (single isomer, unassigned; (-)) [(-)-Metazocine] | > 46
10 | CO/N=C1/CC2(CC3CC(CC=C(C)CC(C)C=CC=C4COC5C(O)C(C)=CC(C(=O)O3)C45O)O2)OC(/C(C)=C/C(C)C)C1C (stereo not drawn) [Moxidectin] | > 46
11 | Cc1c(O)cc2c(c1C)O[C@](C)(CCC[C@H](C)CCC[C@H](C)CCCC(C)C)CC2 | > 46
12 | CO[C@H]1[C@@H](O)CC(O[C@@H]1C)OC2[C@@H](O)CC(O[C@@H]2C)OC3[C@@H](O)C[C@@H](O[C@@H]3C)OC4CC[C@@]5(C)C(CCC6C5CC(O)[C@]7(C)[C@@H](CCC67O)C/8=C/C(=O)OC8)C4 (stereo partly drawn) [METILDIGOXIN] | > 46
13 | CCCCCc1cc(O)c2c(c1)OC(C)(C)c1ccc(C)cc1-2 [Cannabinol] | > 46
14 | CC(C)(C)C(=O)OCOC(=O)C1N2C(=O)CC2[S+](=O)([O-])C1(C)C (stereo not drawn) [Pivoxil Sulbactam] | > 46
15 | C[C@H]1O[C@H](C[C@H](O)[C@@H]1O)O[C@H]2[C@@H](O)C[C@@H](O[C@@H]2C)O[C@H]3[C@@H](O)C[C@@H](O[C@@H]3C)O[C@H]4CC[C@@]5(C)[C@H](CC[C@@H]6[C@@H]5C[C@@H](O)[C@]7(C)[C@H](CC[C@]67O)C/8=C/C(=O)OC8)C4 [Digoxin] | > 46
16 | FC(F)(F)C(F)(F)C(F)(F)C(F)(F)C(F)(F)C(F)(F)C(F)(F)C(F)(F)Br [Perflubron] | > 46
17 | CCCCC/C=C\C/C=C\C/C=C\C/C=C\CCCC(=O)NCC(=O)O [N-ARACHIDONYLGLYCINE] | > 46
18 | CCC1OC(=O)C[C@@H](O)[C@H](C)[C@@H](OC2OC(C)CC(N(C)C)C2O)[C@@H](CC=O)C[C@@H](C)C(=O)/C=C/[C@]2(C)OC2C1C (stereo partly drawn) [ROSAMICIN] | > 46
19 | C[C@]1(O)CC[C@H]2[C@@H]3CCC/4=C/C(=O)CC[C@]4(C)[C@H]3CC[C@]12C [METHYLTESTOSTERONE] | > 46
20 | CC(C)(C)OC(=O)c1ncn2c1[C@@H]1CCCN1C(=O)c1c(Br)cccc1-2 [Bretazenil] | > 46
21 | CCC(=O)OC1CCC2C3CCc4cc(O)ccc4C3CCC12C (stereo not drawn) | > 46

Row | SMILES | IC50 of cell viability [µM]
22 | NC/1=N/C(=O)N(/C=C1)[C@H]2CC[C@@H](CO)O2 [2',3'-Dideoxycytidine] | > 46
23 | Cc1ccccc1C(OCCN(C)C)c1ccccc1.O=C(O)CC(O)(CC(=O)O)C(=O)O (stereo not drawn) [ORPHENADRINE CITRATE] | > 46
24 | CN/C(=C\[N+](=O)[O-])NCCSCc1csc(CN(C)C)n1 [Nizatidine] | > 46
25 | CCCCC[C@H](O)/C=C\[C@H]1[C@H](C/C=C\CCCC(=O)O)[C@@H](O)C[C@H]1O.COC(N)(CO)CO [Dinoprost trometamol] | > 46
26 | COCCOCCO [Diethylene glycol monomethyl ether] | > 46
27 | OC[C@H]1O[C@@H](n2cnc3c2N=CNC[C@H]3O)C[C@@H]1O [Pentostatin] | > 46
28 | CCCCCC(N)=O [Hexanamide] | > 46
29 | COc1ccc(OC)c(CC(C)N)c1 (single isomer, unassigned; (-)) [(-)-2,5-Dimethoxyamphetamine] | > 46
30 | C=C1Nc2ccccc2C(=O)N1c1ccccc1C [METHAQUALONE] | > 46
31 | Cc1cccc(C(C)c2cnc[nH]2)c1C (stereo not drawn) [Medetomidine hydrochloride] | > 46
32 | O=C([O-])CN(CCN(CC(=O)[O-])CC(=O)[O-])CC(=O)[O-].[Fe+3].[Na+] [Feredato sodico] | > 46
33 | O=C1O[C@H](CN2CCOCC2)CN1/N=C\c1ccc([N+](=O)[O-])o1 [Furaltadone hydrochloride] | > 46
34 | COc1cc(OC)c(C(=O)CCCN2CCCC2)c(OC)c1 [Buflomedil hydrochloride] | > 46
35 | N[S+]([O-])(=O)C1=C(Cl)C=C2NC(N[S+]([O-])(=O)C2=C1)C3CC\4CC3\C=C4 (stereo not drawn) [CYCLOTHIAZIDE] | > 46
36 | C=C1[C@@H]2CC[C@H](C2)C1(C)C [CAMPHENE] | > 46
37 | CCCCC[C@H](O)/C=C/[C@@H]1[C@H]2C/C(=C/CCCC(=O)[O-])O[C@H]2C[C@H]1O [EPOPROSTENOL SODIUM] | > 46
38 | CCC1(c2ccccc2)C(=O)NC(=O)N(C)C1=O (stereo not drawn) [Mephobarbital] | > 46
39 | O=C(O)CCC/C=C\C[C@@H]1[C@@H](/C=C/[C@@H](O)COc2cccc(C(F)(F)F)c2)[C@H](O)C[C@@H]1O [Fluprostenol sodium] | > 46
40 | C[C@]12CC[C@@H]3c4ccc(O)cc4CC[C@H]3[C@@H]1CCC2OC(=O)CCC1CCCC1 (stereo partly drawn) [ESTRADIOL CYPIONATE] | > 46
41 | C=C1CC2C3C=C(C)C4=CC(=O)CCC4(C)C3CCC2(C)[C@@]1(OC(C)=O)C(C)=O (stereo partly drawn) | > 46

Continued, values first:

Row | IC50 of cell viability [µM] | SMILES
42 | > 46 | CC(CN1c2ccccc2Sc2ccc([S+](=O)([O-])N(C)C)cc21)N(C)C (stereo not drawn) [Dimethothiazine]
43 | > 46 | CCOC(C)=O [Ethyl acetate]
44 | > 46 | Cc1cc(-c2ccccc2)nnc1NCCN1CCOCC1.Cl.Cl [MINAPRINE HYDROCHLORIDE]
45 | > 46 | O=C(NOCC1CC1)c1ccc(F)c(F)c1Nc1ccc(I)cc1Cl [CI-1040]
46 | > 46 | O=C1c2ccccc2-c2n[nH]c3cccc1c23
47 | > 46 | COCCOC(=O)\C1=C(/C)N\C(=C(/C1C2=CC=CC(=C2)[N+]([O-])=O)C(=O)OC(C)C)C (stereo not drawn) [NIMODIPINE]
48 | > 46 | CCOC(=O)Nc1ccc(NCc2ccc(F)cc2)nc1N [Flupirtine maleate salt]
49 | > 46 | CCOC(=O)Cn1cccc1-c1nc(-c2ccc(OC)cc2)c(-c2ccc(OC)cc2)s1 [PAMICOGREL]
50 | > 46 | CCN1C(=O)N[C@@H](c2ccccc2)C1=O [Ethotoin]
51 | > 46 | O=c1[nH]c2ccccc2n1CCCN1CCN(C(c2ccccc2)c2ccccc2)CC1 [Oxatomide]
52 | > 46 | Cc1cc(-n2c(=O)[nH]c(=O)n(C)c2=O)ccc1Oc1ccc([S+](=O)([O-])C(F)(F)F)cc1 [Toltrazuril sulfone]
53 | > 46 | CN(C1CCCCC1)C(=O)CCCOC2=CC\3=C(NC(=O)\C=C3)C=C2 [Cilostamide]
54 | > 46 | CC(COc1ccccc1)N(CCCl)Cc1ccccc1 (stereo not drawn) [Fenoxibenzamina]
55 | > 46 | CC(=O)Nc1ccc(C(=O)O)cc1 [p-Acetamidobenzoic acid]
56 | > 46 | COC(=O)\C1=C(/C)N\C(=C(/C1C2=CC=CC(=C2)[N+]([O-])=O)C(=O)OCCN(C)CC3=CC=CC=C3)C (stereo not drawn) [NICARDIPINE]
57 | > 46 | Cn1nnnc1SCC1=C(C(=O)O)N2C(=O)[C@@H](NC(=O)[C@H](OC=O)c3ccccc3)[C@H]2SC1 [Cefamandole nafate]
58 | > 46 | CCCCOc1ccc(OCCCN2CCOCC2)cc1 [Pramoxine hydrochloride]
59 | > 46 | CC1(C)OC[C@@H](COC(=O)CCc2ccc(OC[C@@H](O)CNCCNC(=O)N3CCOCC3)cc2)O1 [Landiolol]
60 | > 46 | COC(=O)CCc1ccc(OCC(O)CNC(C)C)cc1 (stereo not drawn) [Esmolol hydrochloride]
61 | > 46 | C/C=C(\C(=C\C)c1ccc(O)cc1)c1ccc(O)cc1 [Dienestrol]
62 | > 46 | COC(=O)N[C@H](C(=O)N[C@@H](Cc1ccccc1)[C@@H](O)CN(Cc1ccc(-c2ccccn2)cc1)NC(=O)[C@@H](NC(=O)OC)C(C)(C)C)C(C)(C)C [Atazanavir]
63 | > 46 | C[S+](=O)([O-])c1ccc([C@H](O)[C@H](CO)NC(=O)C(Cl)Cl)cc1 [Thiamphenicol]
64 | > 46 | O=C1/C(=C2\Nc3ccc(S(=O)(=O)O)cc3C2=O)Nc2ccc(S(=O)(=O)O)cc21 [Indigo carmine]
65 | > 46 | COc1cc2c(N3CCN(C(=O)Nc4ccc(OC(C)C)cc4)CC3)ncnc2cc1OCCCN1CCCCC1 [Tandutinib]
66 | > 46 | Nc1ccc([S+](=O)([O-])Nc2cnc3ccccc3n2)cc1 [sulfaquinoxaline]
67 | > 46 | N\C1=N\C2=C(N=C[N]2COCCO)C(=O)N1 [Acyclovir]
68 | > 46 | CN(C)/C=N/c1c(I)cc(I)c(CCC(=O)O)c1I [IPODATE CALCIUM]

From the supplement of paper PMC3974653
